The test system of experiment [1] is PC-3 cells. The conditions noted are these: cited from earlier work.
A short description of experiment [2]: clinical observations during pelvic radiation for prostate carcinoma. The format is in vivo, patients. The text has this: The present invention originated with observations made during pelvic radiation for prostate carcinoma.
For experiment [3] the following is noted: cited from earlier work.
The mark [4] stands for this setting: PC-3 cells irradiated in the presence or absence of the inhibitor.

For `CS(=O)(=O)Nc1ccc([N+](=O)[O-])cc1OC1CCCCC1` [NS-398], the “prostaglandin (PGE(2)) level in irradiated cells” value in experiment [1] (PC-3 cells irradiated in the presence of the inhibitor) is “reduced PGE(2) levels”. Further, in experiment [1] (setting [4]), the apoptosis result is reported as “no differences” and the cell cycle distribution result is reported as “no differences”.

With `CS(=O)(=O)c1ccc(C2=C(c3ccccc3)C(=O)OC2)cc1` [Vioxx, rofecoxib], the “fatigue associated with radiotherapy” value in experiment [2] is recorded as “decrease”. In addition, in experiment [2] (urinary and gastrointestinal tracts, during radiotherapy), the “acute mucosal effects of radiation” value is recorded as “decrease the acute mucosal effects of radiation”.

For `NCCCNCCSP(=O)(O)O` [Ethiol], the “dry mouth following radiation treatment” value in experiment [3] (head and neck cancer) is listed as “decrease the dry mouth”. In addition, the acute mucosal effects result in experiment [3] (radiotherapy) is given as “does not limit acute mucosal effects”.

(Values after patent publication US20020035139A1, “COX-2 inhibitors and the prevention of the side effects of radiation therapy” (priority 2000, published 2002).)
